{"source": "paper PMC3813957", "about": "(Cancer prevention research (Philadelphia, Pa.), 2013)", "key": {"[1]": {"tested_on": "carcinogen-induced urinary bladder model", "details": "ref Lubet and Grubbs, unpublished data; cited from earlier work"}, "[2]": {"details": "cited from earlier work"}, "[3]": {"tested_on": "methylnitrosourea-induced mammary cancers", "assay": "Prevention of methylnitrosourea-induced mammary carcinogenesis", "assay_type": "in vivo, female Sprague-Dawley rats", "details": "for reduction of final tumor multiplicity: 6 mg/kg BW"}, "[4]": {"assay": "Serum pharmacokinetics of erlotinib and OSI-420 after gavage", "details": "for concentration at 2 h / concentration at 4 h / concentration at 8 h / concentration at 24 h / concentration at 48 h / half-life / AUC(0-t) / Cmax / Tmax: female, Sprague-Dawley, rat, serum"}, "[5]": {"tested_on": "brain metastases", "details": "nine patients, median dose 1500 mg weekly; cited from earlier work"}, "[6]": {"tested_on": "transgenic model of ER negative breast cancer", "details": "ref Lubet and Grubbs, unpublished data; cited from earlier work"}, "[7]": {"tested_on": "phosphorylated ERKs (T202/Y204)", "assay": "Biomarker study: Western blot of phosphorylated ERK in mammary cancers", "assay_type": "in vivo, female Sprague-Dawley rats"}, "[8]": {"tested_on": "established mammary cancers induced by methylnitrosourea", "assay": "Therapy of established", "assay_type": "in vivo, female Sprague-Dawley rats", "details": "for reduction of average tumor size: vehicle group increased 250%"}, "[9]": {"details": "human, 150 mg, steady state; cited from earlier work"}, "[10]": {"tested_on": "MNU-induced rat mammary cancers", "details": "varied doses; cited from earlier work"}, "[11]": {"details": "Experiment C, weekly dosing at either 42 or 21 mg/kg BW"}, "[12]": {"details": "rat 42 mg/kg BW vs human 150 mg"}, "[13]": {"details": "rat effective daily dose (6 mg/kg BW) vs human"}}, "note": "Where two headings read alike, the source gives them in different places.", "data": [{"smiles": "C#Cc1cccc(Nc2ncnc3cc(OCCOC)c(OCCOC)cc23)c1", "note": "[Erlotinib]", "values": [{"measurement": "efficacy of weekly treatment", "setting": "[1]", "value": "strong efficacy"}, {"measurement": "patients with moderate (grade 2) rash", "setting": "[2]; 2000 mg/week", "value": 42, "unit": "%"}, {"measurement": "severe (grade 3) rash or diarrhea", "setting": "[2]; weekly dosing, doses up to 2000 mg/week, any dose level", "value": "no severe (grade 3) rash or diarrhea"}, {"measurement": "tumor incidence and latency", "setting": "[3]; Experiment A, 6 mg/kg BW daily, one day on/one day off, or two days on/two days off, all three regimens vs controls P<.01", "value": "reductions of tumor incidence and increases in latency"}, {"measurement": "reduction of final tumor multiplicity", "setting": "[3]; Experiment A, 2 days on/2 days off, vs vehicle controls P<.001", "value": 75, "unit": "%"}, {"measurement": "reduction of final tumor multiplicity", "setting": "[3]; Experiment A, intermittent dosing (both schedules)", "value": "65–75%"}, {"measurement": "tumor incidence and latency", "setting": "[3]; Experiment B, 6 mg/kg BW daily, 6 mg/kg BW two days on/two days off, or 42 mg/kg BW weekly, all three vs controls P<.01", "value": "reduced tumor incidence and increased tumor latency"}, {"measurement": "reduction of tumor multiplicity", "setting": "[3]; Experiment B, 6 mg/kg BW daily, vs controls P<.005", "value": 85, "unit": "%"}, {"measurement": "tumor incidence", "setting": "[3]; [11]", "value": "strongly inhibited"}, {"measurement": "tumor multiplicity", "setting": "[3]; [11]", "value": "strongly inhibited"}, {"measurement": "preventive activity (tumor incidence and multiplicity)", "setting": "[3]; initial studies, 6 mg/Kg BW/day, data not shown", "value": "highly effective"}, {"measurement": "tumor incidence and multiplicity", "setting": "[3]; initial studies, various daily doses up to 6 mg/kg BW/day", "value": "dose dependent decrease"}, {"measurement": "decrease of tumor multiplicity", "setting": "[3]; lower weekly dose 21 mg/kg BW", "value": "approximately 85%"}, {"measurement": "concentration at 2 h", "setting": "[4]; oral, 6 mg/kg BW/day", "value": "708 ± 48", "unit": "ng/mL"}, {"measurement": "concentration at 4 h", "setting": "[4]; oral, 6 mg/kg BW/day", "value": "427 ± 19", "unit": "ng/mL"}, {"measurement": "concentration at 8 h", "setting": "[4]; oral, 6 mg/kg BW/day", "value": "277 ± 102", "unit": "ng/mL"}, {"measurement": "concentration at 24 h", "setting": "[4]; oral, 6 mg/kg BW/day", "value": "25 ± 9", "unit": "ng/mL"}, {"measurement": "concentration at 48 h", "setting": "[4]; oral, 6 mg/kg BW/day", "value": 0, "unit": "ng/mL"}, {"measurement": "half-life", "setting": "[4]; oral, 6 mg/kg BW/day, half-life, daily erlotinib (discussion)", "value": "300 to 360", "unit": "min"}, {"measurement": "concentration at 2 h", "setting": "[4]; oral, 42 mg/kg BW", "value": "1350 ± 96", "unit": "ng/mL"}, {"measurement": "concentration at 4 h", "setting": "[4]; oral, 42 mg/kg BW", "value": "1060 ± 184", "unit": "ng/mL"}, {"measurement": "concentration at 8 h", "setting": "[4]; oral, 42 mg/kg BW", "value": "1590 ± 259", "unit": "ng/mL"}, {"measurement": "concentration at 24 h", "setting": "[4]; oral, 42 mg/kg BW", "value": "470 ± 121", "unit": "ng/mL"}, {"measurement": "concentration at 48 h", "setting": "[4]; oral, 42 mg/kg BW", "value": "52 ± 11", "unit": "ng/mL"}, {"measurement": "half-life", "setting": "[4]; oral, serum half-life", "value": "≤ 480", "unit": "min"}, {"measurement": "AUC(0-t)", "setting": "[4]; po, 6 mg/kg", "value": 4680, "unit": "ng·h/mL"}, {"measurement": "Cmax", "setting": "[4]; po, 6 mg/kg", "value": 708, "unit": "ng/mL"}, {"measurement": "Tmax", "setting": "[4]; po, 6 mg/kg", "value": 2, "unit": "h"}, {"measurement": "half-life", "setting": "[4]; po, 6 mg/kg, T1/2, rat, non-compartmental", "value": 277, "unit": "min"}, {"measurement": "AUC(0-t)", "setting": "[4]; po, 42 mg/kg", "value": 28400, "unit": "ng·h/mL"}, {"measurement": "Cmax", "setting": "[4]; po, 42 mg/kg", "value": 1590, "unit": "ng/mL"}, {"measurement": "Tmax", "setting": "[4]; po, 42 mg/kg", "value": 8, "unit": "h"}, {"measurement": "half-life", "setting": "[4]; po, 42 mg/kg, T1/2, rat, non-compartmental", "value": 484, "unit": "min"}, {"measurement": "AUC relative to the human dose", "setting": "[4]; rat 6 mg/Kg BW vs human 150 mg", "value": "< 20", "unit": "%"}, {"measurement": "Cmax relative to human levels", "setting": "[4]; rat 6 mg/Kg BW vs human 150 mg", "value": "< 50", "unit": "%"}, {"measurement": "AUC compared with the human", "setting": "[4]; [12]", "value": "similar"}, {"measurement": "Cmax compared with that achieved in humans", "setting": "[4]; [12]", "value": "similar"}, {"measurement": "AUC less than in the human", "setting": "[4]; [13]", "value": 5, "unit": "×"}, {"measurement": "Cmax lower than in the human", "setting": "[4]; [13]", "value": "approximately 60%"}, {"measurement": "efficacy", "setting": "[5]", "value": "significant efficacy was observed"}, {"measurement": "efficacy of weekly treatment", "setting": "[6]", "value": "strong efficacy"}, {"measurement": "phosphorylation of ERK in cancers (Western blot)", "setting": "[7]; 6 mg/kg BW/day daily for 7 days", "value": "striking decrease"}, {"measurement": "levels of phosphorylated ERK", "setting": "[7]; rats treated daily/weekly (abstract)", "value": "strongly decreased"}, {"measurement": "phosphorylated ERK in cancers (Western blot)", "setting": "[7]; single weekly dose 42 mg/kg BW, examined 6 days following the treatment", "value": "strong decrease"}, {"measurement": "reduction of average tumor size", "setting": "[8]; 6 mg/kg BW daily for 6 weeks", "value": 40, "unit": "%"}, {"measurement": "reduction of average tumor size", "setting": "[8]; 42 mg/kg BW weekly for 6 weeks", "value": 25, "unit": "%"}, {"measurement": "share of mammary tumors that decreased by 60% in size", "setting": "[8]; either daily (6 mg/kg BW) or weekly (42 mg/kg BW) dosing, 6 weeks", "value": "at least 50%"}, {"measurement": "AUC0–24", "setting": "[9]", "value": 26500, "unit": "ng·h/mL"}, {"measurement": "Cmax", "setting": "[9]", "value": 1740, "unit": "ng/mL"}, {"measurement": "Tmax", "setting": "[9]", "value": 2.44, "unit": "h"}]}, {"smiles": "COc1cc2ncnc(Nc3ccc(F)c(Cl)c3)c2cc1OCCCN1CCOCC1", "note": "[gefitinib]", "values": [{"measurement": "tumor multiplicity", "setting": "[10]", "value": "dose dependent decrease"}]}]}
